Reference: patent publication US8507448B2, “Human CD154-binding synthetic peptide and uses thereof” (Fresenius Medical Care Deutschland G.m.b.H., priority 2007, dated 2013)

Experiments:
[1] = target: T1, active site of human CD154 (Homo sapiens, UniProt P29965); test: Competition with anti-human CD154 fluorescein-conjugated antibody on J558L cells; type: binding; conditions: -His6 peptides 30 minutes at room temperature, then antibody
T1 construct: expressed in transfected cells; host or cells: J558L murine myeloma cell line transfected with human CD154
T1 sequence (P29965 1-261): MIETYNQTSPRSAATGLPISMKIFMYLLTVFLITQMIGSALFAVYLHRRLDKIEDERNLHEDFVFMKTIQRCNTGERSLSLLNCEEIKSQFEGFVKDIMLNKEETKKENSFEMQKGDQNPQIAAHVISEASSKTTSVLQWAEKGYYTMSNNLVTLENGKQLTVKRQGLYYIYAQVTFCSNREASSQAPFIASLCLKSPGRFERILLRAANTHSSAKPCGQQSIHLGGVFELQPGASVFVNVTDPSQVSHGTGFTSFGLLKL
Description: The murine myeloma cells transfected with human CD154, J558L, were incubated with each of the seven anti-CD154 peptides tagged with a 6 histidines tail (-His6), and then with the anti-CD154 fluorescein-conjugated antibody. The ability of the peptides to compete with the anti-CD154 antibody for the binding to the CD154 molecule expressed on the surface of the J558L cells was evaluated by flow cytometry, as the reduction in the fluorescence intensity compared to the positive control represented by cells incubated with the anti-human CD154 fluorescein-conjugated antibody alone. […] The amino acid sequence of the control peptide differs from that of peptide 4.10 in that an arginine residue is replaced with an alanine residue at amino acid position 5.
(§1) The peptides were synthesized and conjugated with biotin (-bio) or with a 6-histidine tail (-his6) so as to enable in vitro and in vivo localization. […] Furthermore, a competition assay between the peptides and an anti-human CD154 fluorescein-conjugated antibody (Serotec) specifically recognizing the active site of CD154 was carried out. The J558L cells were incubated with the his6-peptides for 30 minutes at room temperature and then with anti-human CD154 fluorescein-conjugated antibody for another 30 minutes at room temperature. […] In order to identify the amino acid residues of the amino acid sequence of peptide 4.10 which are essential to the binding to CD154, three different peptides were synthesized, each one carrying a point mutation, which amino acid sequences differ from that of peptide 4.10 by replacement of the amino acid residues at positions 4, 5, 6, respectively, with one alanine residue.

[2] = test system: CD40 stimulation of peripheral B cells by rhsCD154; test: rhsCD154-induced B cell activation (CD80 and CD86 membrane expression); type: cell-based, human
Description: The histograms of 4A show the effect of the anti-CD154 peptides and the control peptide 4.10-ala, on the activation B cells induced by stimulation with a soluble recombinant human CD154 molecule (rhsCD154). B cells were stimulated for 48 hours with rhsCD154 in the absence and in the presence of a blocking anti-human CD154 antibody or one of the seven selected peptides. Peripheral B cell activation was evaluated by flow cytometry, as the membrane expression of the co-stimulatory molecules CD80 and CD86. […] On the contrary, the activation is prevented when rhsCD154 is used in combination with a blocking anti-human CD154 antibody or with peptide 4.10 (SEQ ID NO: 6).
B cells are known to constitutively express the CD40 molecule on the cells membrane (van Kooten C. et al, J. Leukoc. Biol. 2000). Stimulation of CD40 by CD154-expressing activated T cells, results in B cells activation, proliferation and isotype switching. The inventors employed B cells isolated from whole peripheral blood of healthy donors by gradient-Ficoll centrifugation and immunomagnetical separation (MACS systems—Milteniy). The quiescent B cells thereby obtained, were then stimulated with a soluble form of human recombinant CD154 (rhsCD154) to induce activation and expression of the co-stimulatory molecules CD80 (B7-1) and CD86 (B7-2) on the cell membrane. A drastic increase in membrane expression of CD80 and CD86 on the cell surface of peripheral B cells, after stimulation for 48 hours with rhsCD154 (100 ng/ml) was observed. […] In contrast, pre-incubation for 15 minutes at 37° C. of rhsCD154 (100 ng/ml) with peptide 4.10 (SEQ. ID NO: 6), prior to lymphocyte stimulation, blocked B cells stimulation and the related expression of CD80 and CD86. […] The results are the mean±standard deviation of five different experiments. Similar results were also obtained with B cells isolated from human spleen fragments. […] These experiments were carried out on […] naive B cells, obtained from peripheral blood by negative selection, by depletion of mature lymphocytes from the B cell pool by immunomagnetic separation (MACS Systems Milteniy).

[3] = target: T2, human CD154 expressed on the surface of J558L cells (Homo sapiens, UniProt P29965); test: Binding of -His6-tagged peptides to J558L CD154+ cells by flow cytometry; conditions: -His6 peptides 60 μM, 30 minutes at room temperature
T2 construct: expressed in transfected cells; host or cells: J558L murine myeloma cell line transfected with human CD154
T2 sequence (P29965 1-261): T1 sequence (P29965 1-261)
Description: FIG. 2 represents the binding of the seven peptides obtained from the human CD154-binding clones and tagged with a 6 histidines tail (-His6) to the J558L CD154^+ cells. […] The cells were incubated with each of the -His6-tagged peptides and then with a phycoerythrin-conjugated secondary antibody specific for the -His6 tail. The dotted histogram is the isotopic control, whilst the black line is the binding intensity of the CD154-specific peptides [4.2=4.3=CPSGHTKAC (SEQ ID NO: 1), 4.4=CGTHSSRIC (SEQ ID NO: 2), 4.6=CLGTQNKEC (SEQ ID NO: 3), 4.7=4.12=CTPGKPHSC (SEQ ID NO: 4), 4.8=CKAASANIC (SEQ ID NO: 5), 4.10=CLPTRHMAC (SEQ ID NO: 6) and 4.11=CLSAVHNMC (SEQ ID NO: 7)]. For each experimental condition, 10,000 events were analyzed and the values are the mean and standard deviation of 3 different experiments.
as §1
The mutated peptides were not capable of recognizing human CD154 expressed at the surface of J558L cells (data not shown).
Similar results were obtained with the four modified peptides 4.101, 4.102, 4.103 e 4.104 having the amino acid sequences illustrated in table II.

HUVEC [4] = test: In vitro angiogenesis: cell cord formation of HUVECs on Matrigel; type: cell-based, human; conditions: pre-incubated with rhsCD154 100 ng/ml for 15 minutes at 37° C.; 4 hours
Text: FIGS. 7B-F show representative images of cell cord formation ability on Matrigel under the various experimental conditions mentioned above (B=unstimulated control; C=rhsCD154; D=rhsCD154+ 4.10 peptide; E=rhsCD154+ 4.10-ala peptide; F=rhsCD154+ blocking anti-CD154 antibody). Peptide 4.10 of the invention (SEQ ID NO: 6), contrary to control peptide 4.10-ala (SEQ ID NO: 8), inhibits the rhsCD154-induced ability of the endothelial cells of forming cell cords.
(§2) Furthermore, in order to evaluate the inhibitory effect, rhsCD154 (100 ng/ml) was pre-incubated for 15 minutes at 37° C. with peptide 4.10 (SEQ. ID NO: 6), or with control peptide 4.10-ala (SEQ. ID NO: 8), or with a blocking anti-human CD154 antibody. The flasks were then observed at 10× magnification for a period of 4 hours under a phase contrast inverted microscope equipped with a thermostatic chamber (at about 37° C.). The cells were photographed with a camera connected to the microscope, over the whole length of time of 4 hours at regular intervals of 15 minutes each. The migratory speed of each of the cells was calculated based on the position of the nucleus of each single cell in each single frame, using an image analysis software and, as a result, the average cell migratory speed (1 standard deviation) was calculated for each experimental condition. […] As a further confirmation of the ability of peptide 4.10 to prevent human endothelial CD40 stimulation by rhsCD154 (100 ng/ml), HUVECs (3.5×10^4) were subjected to an in vitro angiogenesis assay. HUVECs were plated on a tumor matrix (Matrigel, BD) capable of promoting the formation of super cellular organization, in a basal RPMI medium supplemented with 5% serum. Upon incubation at 37° C. under 5% CO2 for 4 hours, the cells were observed under a contrast phase inverted microscope.

HUVEC [5] = test: rhsCD154-induced HUVEC motility (time-lapse migration); type: cell-based, human
Description: Peptide 4.10 (SEQ ID NO: 6), contrary to control peptide 4.10-ala (SEQ ID NO: 8), inhibits the rhsCD154-induced motility of endothelial cells.
It is known that an inflammatory process, once triggered, can be preserved by cells outside the immune system expressing particular receptors or lymphocyte co-stimulatory molecules, such as CD40 and its ligand CD154, such as e.g. endothelial cells from the vascular wall. […] In particular, the cell migration experiments were carried out with HUVEC cells plated on gelatin at a density of 4×10^3 in complete endothelial cell medium in the presence of 20% serum. The following day, the endothelial medium was replaced with low glucose DMEM (Sigma) with a reduced serum concentration (5%), in the presence or absence of rhsCD154 (100 ng/ml).
as §2, with “Upon incubation at 37° C. under 5% CO2 for 4 hours, the cells were observed under a contrast phase inverted microscope.” left out

human platelets = test: Platelet aggregation assay (aggregometer); type: cell-based; conditions: priming 10 minutes at 37° C.; peptide 60 μM with CD154
Description: Platelet aggregation was measured with an aggregometer, as the increase in light transmission compared to the control. Priming of human platelets with the anti-human CD154 antibody in combination with rhsCD154 increases platelet aggregation upon stimulation with ADP 0.5 μM.
Finally, one of the major advantages of peptide 4.10 is its lack of reactivity towards human platelets. It is know that in the past, a number of clinical trials carried out to test promising anti-CD154 monoclonal antibodies were suddenly discontinued due to dramatic prothrombotic side effects (Kelsoe G. et al, J. Clin. Invest. 2003). The hypothesis is that the anti-CD154 antibodies had triggered a cross-reaction on the surface of human platelets expressing the receptor for the Fc immunoglobulin fraction (FcR) and, after activation, the CD154 molecule. Thus, the inventors tested the effect of peptide 4.10 on platelets, by a platelet aggregation assay. Such experiments were carried out by the use of a thermostatic aggregometer, equipped with a magnetic stirrer and a real time optical density meter. Platelet aggregation was evaluated as the change in optical density versus the reference sample (blank). The experiments were carried out on platelets extracted from peripheral whole blood of healthy donors collected in tubes containing 5 U/ml heparin. In particular, the platelet enriched plasma (PRP), was obtained by whole blood centrifugation at 900 rpm for 20 minutes, while the platelet poor plasma (PPP), used as the reference sample, was obtained collecting the supernatant after another centrifugation at 3000 rpm for 10 minutes. […] Similar results were obtained inducing platelet aggregation with 0.3 U/ml thrombin.

naive B cells = test: Isotype switching of naive B cells induced by IL-4 and rhsCD154; type: cell-based, human; conditions: IL-4 0.4 ng/ml and rhsCD154 100 ng/ml, 96 hours, no inhibitor
Description: The graphics of FIG. 5A show the percentage of naive B cells undergoing isotype switching and expressing IgG, under basal condition with no stimulation, after stimulation for 72 hours with IL4 and CD154, […] anti-human CD154 antibody, […] 4.10 (SEQ ID NO: 6), respectively. Peptide 4.10 (SEQ ID NO: 6), just as the anti-CD154 antibody, is capable of strongly inhibiting the isotype switching of immunoglobulins induced by stimulation with rhsCD154 and IL4.
B cells are known to constitutively express the CD40 molecule on the cells membrane (van Kooten C. et al, J. Leukoc. Biol. 2000). Stimulation of CD40 by CD154-expressing activated T cells, results in B cells activation, proliferation and isotype switching. The inventors employed B cells isolated from whole peripheral blood of healthy donors by gradient-Ficoll centrifugation and immunomagnetical separation (MACS systems—Milteniy). The quiescent B cells thereby obtained, were then stimulated with a soluble form of human recombinant CD154 (rhsCD154) to induce activation and expression of the co-stimulatory molecules CD80 (B7-1) and CD86 (B7-2) on the cell membrane. A drastic increase in membrane expression of CD80 and CD86 on the cell surface of peripheral B cells, after stimulation for 48 hours with rhsCD154 (100 ng/ml) was observed. […]

[6] = rhsCD154 100 ng/ml alone, 48 hours

Row | binding to J558L CD154+ cells [3] | Substance | competition with anti-human CD154 fluorescein-conjugated antibody specific for the active site of CD154 [1] | inhibition of rhsCD154-induced B cell activation (CD80 and CD86 expression) ([2]; 250 μM) | effect on rhsCD154-induced formation of vessel-like cell cords on Matrigel (HUVEC [4]) | effect on rhsCD154-induced motility of HUVEC (HUVEC [5]; pre-incubated with rhsCD154 100 ng/ml for 15 minutes at 37° C.) | platelet aggregation induced by ADP 0.5 μM after priming (human platelets) | increase in membrane expression of CD80 compared to basal levels [2, 6] | increase in membrane expression of CD86 compared to basal levels [2, 6] | increase in the basal motility of cells (HUVEC [5]; rhsCD154 100 ng/ml alone) | cell migratory speed (HUVEC [5]; rhsCD154 100 ng/ml alone, basal lower than 12 μm/h) | increase in the number of B cells expressing membrane IgG (naive B cells)
1 | least reactive | CLPTAHMAC (binding protein) [peptide 4.10-ala, control peptide; arginine at position 5 of peptide 4.10 replaced with alanine, reference compound] | complete inactivation of the peptide's ability to compete | neither affected the expression of CD80 and CD86 | did not affect the ability of the cells to form vessel-like cell cords | did not affect endothelial CD40 stimulation |  |  |  |  |  | 
2 |  | rhsCD154: recombinant soluble form of human CD154, used as the CD40 stimulus [reference compound] |  |  |  |  | did not enhance platelet aggregation | 300% | 274% | about 350% | 42 μm/h | 25%
